“Also recorded” adds a separate entry of the source.
Experiments:
[1] = acute toxicity / tolerability in the rat; type: in vivo; conditions: alizarin, up to 400 mg/kg
[2] = acute toxicity / tolerability in the mouse; type: in vivo; conditions: alizarin, one gram per kilogram
[3] = overall summary of pharmacological and toxicological tests; type: in vivo
[4] = in vitro crystallization of calcium oxalate
[5] = test system: oxalate urolithiasis; assay: therapeutic use in oxalate urolithiasis (general statements); type: in vivo, human; conditions: general statement
[6] = test system: edema of the paws of rats; assay: anti-inflammatory action: edema of the paws induced by viscarin-carrageenin; type: in vivo, rat; conditions: AMDK 600 mg/kg p.o.; for Edema volume: 10 animals
Protocol: The possibility of any effect on inflammatory reactions was tested on edema of the paws of rats (groups of ten rats each) induced by viscarin-carrageenin. […] The measurement of the course of the edema was performed at 3, 5, 7 and 24 hours after the edematization. […] Where the variances between the experimental and control groups were unequal, the more rigorous t test (according to SNEDECOR) was applied for the judgment.

Compound | tolerance of acute administration [1] | tolerance of acute administration [2] | tolerance in the acute toxicity test [3] | action on the crystallization of calcium oxalate [4] | effect on the formation of stones [5] | effectiveness in treatment of urolithiasis [5] | tolerance [5] | Percentage of inhibition (edema) ([6]; 3 hours after edematization) | Edema volume ([6]; 3 hours after edematization) | Percentage of inhibition (edema) ([6]; 5 hours after edematization) | Edema volume ([6]; 5 hours after edematization) | Percentage of inhibition (edema) ([6]; 7 hours after edematization) | Edema volume ([6]; 7 hours after edematization) | Percentage of inhibition (edema) ([6]; 24 hours after edematization) | Edema volume ([6]; 24 hours after edematization)
O=C1c2ccccc2C(=O)c2c1ccc(O)c2O [alizarin] | tolerated without producing symptoms | tolerated without producing symptoms | extremely well tolerated | inhibiting action on the crystallization of calcium oxalate | decided inhibitive effect on the formation of stones | decidedly effective | easily tolerated; also recorded: very well tolerated |  |  |  |  |  |  |  | 
Sodium escinate |  |  |  |  |  |  |  | 41.4 Percentage | 46.5 mL | 37.2 Percentage | 50.7 mL | 39.1 Percentage | 46.6 mL | 40.9 Percentage | 14.9 mL

Source: patent US4447455A, “Oral urolithiasis remedy” (Madaus and Company, priority 1982, dated 1984)
